Some test systems named below: HCT-116 colon; HL-60(TB) leukemia; LOX IMVI melanoma; MALME-3M melanoma; MCF7 breast; SR leukemia; TK-10 renal; UACC-62 melanoma; UO-31 renal; HCT-15 colon; UACC-257 melanoma; NCI/ADR-RES ovarian.
What all share (experiment): NCI tumour cell line growth inhibition, 48 h

Values joined by “and” are separate entries in the source; they are usually repeats but may differ in a detail not shown here. Equal entries are not always repeated.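 Tested at 5 concentrations; 48 h exposure; 96-well plates; endpoints linearly interpolated, else capped at highest concentration. GI50 is the concentration that inhibits growth by half. Definition used: TGI = concentration required for complete inhibition of growth.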

Consider `COc1cccc(-c2cc(=O)c3c(C)ccnc3[nH]2)c1`, for which the TGI in the experiment with HCT-116 colon was more than 100 µM; in the experiment on HL-60(TB) leukemia, 0.0532 µM; in the experiment with LOX IMVI melanoma it was more than 100 µM; in the experiment on MALME-3M melanoma it was more than 100 µM; in the experiment with MCF7 breast, more than 100 µM; in the experiment with SR leukemia, 0.0396 µM. The TGI with TK-10 renal, in the experiment with UACC-62 melanoma and with UO-31 renal was more than 100 µM throughout.
Regarding `COC(=O)C1C2C=CC(C2)N1[C@@H](C)c1ccccc1` (some centres not stated), the TGI with HCT-116 colon, in the experiment with HCT-15 colon, with HL-60(TB) leukemia, with LOX IMVI melanoma, in the experiment with MALME-3M melanoma and in the experiment on SR leukemia was more than 100 µM throughout. Further, the TGI with TK-10 renal, with UACC-257 melanoma, with UACC-62 melanoma and in the experiment with UO-31 renal was more than 100 µM in each case.
For the compound `COC(=O)/N=[N+](\[O-])C(c1ccc(OC)cc1)C1CCCCC1` (configuration not stated), the TGI with HCT-116 colon is 4.41 µM; with HCT-15 colon it was 23.5 µM; with HL-60(TB) leukemia, 2.78 µM; with LOX IMVI melanoma, more than 100 µM; with MALME-3M melanoma, 11.8 µM; in the experiment on MCF7 breast, more than 100 µM. Further, the TGI with NCI/ADR-RES ovarian was 15.8 µM; in the experiment with TK-10 renal it was 25.9 µM; in the experiment with UACC-257 melanoma, 25.3 µM; in the experiment on UACC-62 melanoma, 25 µM; with UO-31 renal, 21.5 µM.
Regarding `COc1ccc(C(C#N)NNc2nc(C)cc(=O)[nH]2)cc1OC` (configuration not stated), the TGI in the experiment on HCT-116 colon, in the experiment on HCT-15 colon, in the experiment on HL-60(TB) leukemia, in the experiment on LOX IMVI melanoma, in the experiment with MALME-3M melanoma and in the experiment with SR leukemia was more than 100 µM each time. Besides, the TGI with TK-10 renal, with UACC-257 melanoma, in the experiment with UACC-62 melanoma and in the experiment with UO-31 renal was more than 100 µM throughout.
On to `Cc1ccc2c(n1)C(=O)c1ccccc1C2=O`, for which the TGI in the experiment on HCT-116 colon was 61.8 µM; in the experiment on HCT-15 colon it was 82.9 µM; with HL-60(TB) leukemia, 45.7 µM; in the experiment with LOX IMVI melanoma it was 53.1 µM; with MALME-3M melanoma, 23.2 µM; in the experiment with MCF7 breast, 38.8 µM. Further, the TGI in the experiment with NCI/ADR-RES ovarian was 60.1 µM; with TK-10 renal it was more than 100 µM; in the experiment on UACC-257 melanoma it was 37.9 µM; with UACC-62 melanoma it was 43.6 µM; in the experiment with UO-31 renal, more than 92.7 µM.
As to `CC(=O)NC1=C(C)C(=O)c2c(nc3n2CCC3O)C1=N` (configuration not stated), the TGI was 6.88 µM in the experiment on HCT-116 colon; 41.1 µM with HCT-15 colon; more than 100 µM with HL-60(TB) leukemia; 19.2 µM in the experiment with LOX IMVI melanoma; 18.8 µM in the experiment with MALME-3M melanoma; more than 100 µM in the experiment on SR leukemia. Further, the TGI with TK-10 renal turned out to be 85.4 µM; with UACC-257 melanoma it was 13.2 µM; in the experiment on UACC-62 melanoma, 15.5 µM; with UO-31 renal it was 46.6 µM.
With `CCCCOC(=O)C(O)Cc1ccoc1` (configuration not stated), the TGI in the experiment on HCT-116 colon, with HCT-15 colon, in the experiment on HL-60(TB) leukemia, with LOX IMVI melanoma, in the experiment on MALME-3M melanoma and with MCF7 breast was more than 100 µM each time. The TGI in the experiment on NCI/ADR-RES ovarian, with TK-10 renal, in the experiment on UACC-62 melanoma and in the experiment with UO-31 renal was more than 100 µM throughout.
Turning to `COc1ccc(C2S/C(=C\c3ccc(O)cc3)C(=O)N2NC(=O)Cc2ccccc2)cc1` (configuration not stated), the TGI in the experiment on HCT-116 colon, in the experiment on HCT-15 colon, with HL-60(TB) leukemia, in the experiment on LOX IMVI melanoma, in the experiment on MALME-3M melanoma and in the experiment on SR leukemia was more than 100 µM in each case. For the same compound, the TGI in the experiment with TK-10 renal, in the experiment with UACC-257 melanoma, in the experiment on UACC-62 melanoma and in the experiment with UO-31 renal was more than 100 µM throughout.
As to `CN(CCc1ccc(N)cc1)[C@H]1CCCC[C@H]1N1CCCC1`, the TGI in the experiment with HCT-116 colon, in the experiment on HCT-15 colon, with HL-60(TB) leukemia, in the experiment with LOX IMVI melanoma, in the experiment with MALME-3M melanoma and in the experiment with MCF7 breast was more than 100 µM each time. Further, the TGI in the experiment on NCI/ADR-RES ovarian, with TK-10 renal, with UACC-257 melanoma, in the experiment on UACC-62 melanoma and in the experiment with UO-31 renal was more than 100 µM each time.
With `O=C(CSC(=S)N1CCOCC1)Nc1nc2c(s1)CCCC2`, the TGI in the experiment on HCT-116 colon, in the experiment with HCT-15 colon, in the experiment on HL-60(TB) leukemia, with LOX IMVI melanoma, in the experiment on MALME-3M melanoma and in the experiment on SR leukemia was more than 100 µM each time. Also, the TGI in the experiment on TK-10 renal, in the experiment on UACC-257 melanoma and with UO-31 renal was more than 100 µM in each case.
With `CC(=O)OC1c2ccccc2CCCCCCC12OCCO2` (configuration not stated), the TGI with HCT-116 colon, in the experiment with HCT-15 colon, with HL-60(TB) leukemia, in the experiment on LOX IMVI melanoma, in the experiment on MALME-3M melanoma and with TK-10 renal was more than 100 µM each time. Further, the TGI in the experiment with UACC-257 melanoma, in the experiment with UACC-62 melanoma and in the experiment on UO-31 renal was more than 100 µM each time.
On to `CCOC(=O)CCC(NC(=O)c1ccc(N2CCN(c3c(C)nc(N)nc3N)CC2)cc1)C(=O)OCC` (configuration not stated), for which the TGI with HCT-116 colon, in the experiment with HCT-15 colon, with LOX IMVI melanoma, in the experiment with MALME-3M melanoma, in the experiment with MCF7 breast and in the experiment on NCI/ADR-RES ovarian was more than 100 µM each time. Further, the TGI was more than 100 µM in the experiment with TK-10 renal, more than 55.9 µM in the experiment with UACC-257 melanoma, more than 100 µM in the experiment with UACC-62 melanoma and more than 100 µM in the experiment on UO-31 renal.
As for `CC(C)=CCSC1CC2C(CC1(C)O)C2(C)C` (configuration not stated), the TGI with HCT-116 colon is 33.5 µM and 28.7 µM; in the experiment on HCT-15 colon, 31.4 µM and 29.6 µM; in the experiment on HL-60(TB) leukemia it was > 100 µM and 19.7 µM; in the experiment on LOX IMVI melanoma, 29.7 µM; in the experiment on MALME-3M melanoma, 31.2 µM and 30.4 µM; in the experiment with TK-10 renal, 32.3 µM and 30.8 µM. The TGI in the experiment on UACC-257 melanoma was 32.6 µM and 20.6 µM; in the experiment on UACC-62 melanoma it was 29.2 µM and 31.7 µM; with UO-31 renal, 28.2 µM and 20.8 µM. The GI50 in the experiment with HL-60(TB) leukemia is 34.1 µM and 3.82 µM; in the experiment on UACC-257 melanoma, 18.3 µM and 7.13 µM; with UO-31 renal it was 14.4 µM and 6.12 µM.

These data come from PubChem BioAssay (NCI).
